Experimental data from patent publication US11413266B2, “Use of cannabinoids in the treatment of inflammatory skin diseases” (GW Pharma Limited, priority 2015, dated 2022).

Columns and labels:
[1] = tested on: IL8; assay: UVB-induced IL8 mRNA expression in HaCaT keratinocytes, RT-qPCR; assay type: cell-based, human
[2] = tested on: MCP-2; assay: MCP-2 ELISA in supernatants of poly-(I:C)-stimulated HaCaT cells; assay type: cell-based, human
[3] = tested on: IL6; assay: UVB-induced IL6 mRNA expression in HaCaT keratinocytes, RT-qPCR; assay type: cell-based, human; settings: 0.3 μM
[4] = tested on: human epidermal keratinocytes; assay: Summary score, TLR3-induced inflammation model (microbial infection-induced dermatitis); assay type: cell-based; settings: sum of +1 anti-inflammatory, 0 no effect, −1 pro-inflammatory, Table 1
[5] = tested on: IL8; assay: UVB-induced IL8 release in HaCaT keratinocytes, ELISA; assay type: cell-based, human; settings: 0.3 μM
[6] = tested on: HaCaT cells; assay: Cell viability of HaCaT cells (MTT); assay type: cell-based, human; settings: 20 μM
Procedure: Cell viability was measured after 6 h in HaCaT cells treated with CBD (20 μM) or vehicle by using the 3-(4,5-dimethylthiazol-2yl)-2,5-diphenyl tetrazolium bromide (MTT) colorimetric assay.
Briefly, after 6 h HaCaT cells were incubated with MTT (5 mg·ml-1) for 3 h at 37° C. in 5% CO2. After 3 h HaCaT cells were lysed with DMSO and incubated for 6 h at 37° C. in 5% CO2.
Absorbance was measured at 630 nm. Results are expressed as % of cell viability, where optical density values from vehicle-treated cells were defined as 100% of cell viability.

[7] = tested on: human epidermal keratinocytes; assay: Summary score, UVB-induced inflammation model (solar dermatitis); assay type: cell-based; settings: sum of +1 anti-inflammatory, 0 no effect, −1 pro-inflammatory, Table 2
[8] = tested on: HPV-Ker keratinocytes; assay: Summary score, SEB/TSLP-induced inflammation model (atopic dermatitis); assay type: cell-based, human; settings: sum of +1 anti-inflammatory, 0 no effect, −1 pro-inflammatory, Table 3
[9] = tested on: human sebocytes; settings: Oláh et al., 2014; cited from earlier work
[10] = tested on: OEA; assay: OEA levels in poly-(I:C)-stimulated HaCaT cells (LC-APCI-MS); assay type: cell-based, human; settings: CBD 20 μM, 6 h
Procedure: (§1) HaCaT cells were plated into six-well culture plates at a cell density of 9×10^5 cells per well, and after 1 day were stimulated with poly-(I:C) (100 μg·ml-1) and treated with CBD (20 μM) or vehicle, and incubated for 6 h at 37° C. in 5% CO2.
(§2) After 6 h the resulting cells and supernatants were subjected to measurement of endocannabinoids such as N-arachidonoyl-ethanolamine (anandamide, AEA) and 2-arachidonoyl-glycerol (2-AG), and related N-acylethanolamines such as PEA and N oleoylethanolamine (OEA).
(§3) Cells and supernatants were homogenized in a solution of chloroform/methanol/Tris-HCl 50 mM pH 7.4 (2:1:1 by vol.) containing 10 pmol of [2H]8-AEA, and 5 pmol of [2H]5-2-AG, [2H]4-PEA and [2H]2-OEA as internal deuterated standards. The lipid-containing organic phase was pre-purified by open-bed chromatography on silica gel, and fractions obtained by eluting the column with a solution of chloroform/methanol (90:10 by vol.) were analyzed by liquid chromatography-atmospheric pressure chemical ionization-mass spectrometry (LC-APCI-MS) by using a Shimadzu HPLC apparatus (LC-10ADVP) coupled to a Shimadzu (LCMS-2020) quadrupole MS via a Shimadzu APCI interface. […]

[11] = tested on: DNFB-induced allergic contact dermatitis (ACD); assay: DNFB-induced allergic contact dermatitis (ACD) in mice, ear swelling; assay type: in vivo
Procedure: A total of 10 animals per group were used in the experiments described here.
Briefly, DNFB was diluted in acetone/olive oil (4:1 by vol.) immediately before use and eight-ten week-old female C57BL/6J mice were sensitized by painting 50 μl of 0.2% DNFB on the shaved abdomen on two consecutive days. Then, mice were challenged by painting 10 μl of 0.3% DNFB on both sides of one ear on day 5.
Ear swelling was measured 24, 48 and 72 h after this first challenge by measuring the difference in ear thickness between the unchallenged and the challenged ear using an engineer's micrometer. CBD (2.5, -5- and 10 mg·kg-1) was administered intraperitoneally (i.p.) on day 5 (the day of the first challenge with DNFB), 6 and, 7 after the initial sensitization with DNFB. CBD was dissolved in DMSO and Tween-20 1%.
For the determination of MCP-2, endocannabinoids, PEA and OEA, group means were compared using the one-way ANOVA followed by Newman-Keuls multiple comparison test or the Student's t-test. For the determination of cell viability, group means were compared using the Student's t-test. All determinations were performed at least in triplicate. For the determination of ear thickness, group means were compared using the one-way ANOVA followed by Tukey-Kramer multiple comparison test (n=10).

[12] = tested on: IL8; assay: PolyIC-induced IL8 release in NHEK keratinocytes, ELISA; assay type: cell-based, human; settings: NHEKs; concentration not singled out (0.3 and 3 μM tested)
[13] = tested on: IL6; assay: PolyIC-induced IL6 release in NHEK keratinocytes, ELISA; assay type: cell-based, human; settings: NHEKs; concentration not singled out (0.3 and 3 μM tested)
[14] = tested on: 2-AG; assay: 2-AG levels in poly-(I:C)-stimulated HaCaT cells (LC-APCI-MS); assay type: cell-based, human; settings: CBD 20 μM, 6 h
Procedure: as §1, §2, §3

[15] = tested on: IL6; assay: UVB-induced IL6 release in HaCaT keratinocytes, ELISA; assay type: cell-based, human; settings: 3 μM
[16] = tested on: AEA; assay: AEA levels in poly-(I:C)-stimulated HaCaT cells (LC-APCI-MS); assay type: cell-based, human; settings: CBD 20 μM, 6 h
Procedure: as §1, §2, §3

## C=C(C)[C@@H]1CCC(C)=C[C@H]1c1c(O)cc(CCCCC)cc1O [CBD, Cannabidiol]
[1]; 0.3 μM
  UVB-upregulated IL8 (RT-qPCR): anti-inflammatory effects
[1]; 3 μM
  UVB-upregulated IL8 (RT-qPCR): pro-inflammatory effects
[2]; 20 μM, poly-(I:C)-stimulated HaCaT, 6 h
  MCP-2 production: maximum effect
[2]; 1, 5, 10 and 20 μM, poly-(I:C) 100 μg·ml-1, 6 h, vs vehicle
  MCP-2 protein levels: strong concentration-dependent reduction
[2]; compound alone, 20 μM, absence of poly-(I:C), vs vehicle-treated HaCaT, data not shown
  MCP-2 protein levels: no significant variation
[2]; poly-(I:C)-stimulated keratinocytes
  potency in the inhibition of MCP-2 chemokine production relative to other phytocannabinoids tested: more potent
[3]
  UVB-upregulated IL6 (RT-qPCR): anti-inflammatory effects
[4]; 0.3 μM
  SCORE: 5
[4]; 3 μM
  SCORE: 8
[5]
  UVB-upregulated IL8 (ELISA): anti-inflammatory effects
[6]
  cytotoxicity: not cytotoxic
[7]; 0.3 μM
  SCORE: 5
[7]; 3 μM
  SCORE: 1
[8]; 0.3 μM
  SCORE: −1
[8]; 3 μM
  SCORE: 1
[9]
  anti-acne effects: exerted anti-acne effects
[10]
  OEA levels: No consistent effect
[11]; 2.5 mg·kg-1 i.p.
  ear thickness: did not show any statistically significant effect
[11]; 5 mg·kg-1 i.p.
  ear thickness: did not show any statistically significant effect
[11]; 10 mg·kg-1 i.p. on day 5, 6 and 7, 48 h after first challenge, vs control mice
  ear thickness: reduced
[11]; 10 mg·kg-1 i.p. on day 5, 6 and 7, 72 h after first challenge, vs control mice
  ear thickness: reduced
[12]
  PolyIC-induced elevated release of IL8: dose-dependent suppression
[13]
  PolyIC-induced elevated release of IL6: dose-dependent suppression
[14]
  2-AG levels: No consistent effect
[15]
  UVB-upregulated IL6 (ELISA): anti-inflammatory effects
[16]
  AEA levels, increase compared to poly-(I:C)-stimulated HaCaT cells: −2.7 fold
  AEA levels, increase compared to vehicle-treated HaCaT cells: −8 fold
